Measured values taken from US8747846B2, “Compositions and methods for immunization against drug resistant Acinetobacter baumannii” (priority 2011, dated 2014).
Converted amounts (≈) assume the structure as drawn. Where two headings read alike, the source gives them in different places.

Legend:
Format in all cases: cell-based, Acinetobacter baumannii
A. baumannii ATCC 17978 = assay: Antibacterial minimum inhibitory concentrations for clinical isolates; details: strain ATCC 17978; for MIC: Acinetobacter baumannii, ATCC17978
A. baumannii HUMC1 = assay: microbe, parasite or virus in culture; details: for MIC: Acinetobacter baumannii
A. baumannii HUMC4 = assay: microbe, parasite or virus in culture; details: for MIC: Acinetobacter baumannii
A. baumannii HUMC5 = assay: microbe, parasite or virus in culture; details: for MIC: Acinetobacter baumannii
A. baumannii HUMC6 = assay: microbe, parasite or virus in culture; details: for MIC: Acinetobacter baumannii
A. baumannii HUMC12 = assay: microbe, parasite or virus in culture; details: for MIC: Acinetobacter baumannii
[1] = HUMC1, read-out: Antibacterial Minimum Inhibitory Concentrations
[2] = strain HUMC4, read-out: Antibacterial Minimum Inhibitory Concentrations
[3] = strain HUMC5, read-out: Antibacterial Minimum Inhibitory Concentrations
[4] = strain HUMC6, read-out: Antibacterial Minimum Inhibitory Concentrations
[5] = strain HUMC12, read-out: Antibacterial Minimum Inhibitory Concentrations
[6] = strain HUMC1, read-out: Antibacterial Minimum Inhibitory Concentrations

Molecule | MIC (A. baumannii ATCC 17978) | MIC (A. baumannii HUMC1; [1]) | MIC (A. baumannii HUMC4; [2]) | MIC (A. baumannii HUMC5; [3]) | MIC (A. baumannii HUMC6; [4]) | MIC (A. baumannii HUMC12; [5]) | MIC (A. baumannii HUMC1; [6]) | Antibacterial Minimum Inhibitory Concentrations (A. baumannii HUMC1; strain HUMC1) | Antibacterial Minimum Inhibitory Concentrations (A. baumannii HUMC4; strain HUMC4) | Antibacterial Minimum Inhibitory Concentrations (A. baumannii HUMC5; strain HUMC5) | Antibacterial Minimum Inhibitory Concentrations (A. baumannii HUMC6; strain HUMC6) | Antibacterial Minimum Inhibitory Concentrations (A. baumannii HUMC12; strain HUMC12) | further results
NCC[C@H](O)C(=O)N[C@@H]1C[C@H](N)[C@@H](O[C@H]2O[C@H](CN)[C@@H](O)[C@H](O)[C@H]2O)[C@H](O)[C@H]1O[C@H]1O[C@H](CO)[C@@H](O)[C@H](N)[C@H]1O [Amikacin] | 8 µg/mL (≈ 13.7 µM) | > 128 µg/mL | > 128 µg/mL | > 128 µg/mL | > 128 µg/mL | > 128 µg/mL | – | – | – | – | – | – | –
C[C@@H](O)[C@H]1C(=O)N2C(C(=O)O)=C(S[C@@H]3CN[C@H](CNS(N)(=O)=O)C3)[C@H](C)[C@H]12 [Doripenem] | 0.5 µg/mL (≈ 1.19 µM) | – | 4 µg/mL (≈ 9.51 µM) | 8 µg/mL (≈ 19 µM) | 4 µg/mL (≈ 9.51 µM) | 8 µg/mL (≈ 19 µM) | 16 µg/mL (≈ 38 µM) | – | – | – | – | – | –
CN(C)c1cc(NC(=O)CNC(C)(C)C)c(O)c2c1C[C@H]1C[C@H]3[C@H](N(C)C)C(O)=C(C(N)=O)C(=O)[C@@]3(O)C(O)=C1C2=O [Tigecycline] | 0.25 µg/mL (≈ 0.427 µM) | 4 µg/mL (≈ 6.83 µM) | – | – | – | – | – | – | – | – | – | – | MIC (A. baumannii HUMC4; HUMC4, read-out: Antibacterial Minimum Inhibitory Concentrations): 4 µg/mL (≈ 6.83 µM); MIC (A. baumannii HUMC5; HUMC5, read-out: Antibacterial Minimum Inhibitory Concentrations): 4 µg/mL (≈ 6.83 µM); MIC (A. baumannii HUMC6; HUMC6, read-out: Antibacterial Minimum Inhibitory Concentrations): 4 µg/mL (≈ 6.83 µM); MIC (A. baumannii HUMC12; HUMC12, read-out: Antibacterial Minimum Inhibitory Concentrations): 4 µg/mL (≈ 6.83 µM)
C[C@@H](O)[C@H]1C(=O)N2C(C(=O)O)=C(SCCN=CN)C[C@H]12 [Imipenem] | 0.25 µg/mL (≈ 0.835 µM) | – | 4 µg/mL (≈ 13.4 µM) | 4 µg/mL (≈ 13.4 µM) | 4 µg/mL (≈ 13.4 µM) | 2 µg/mL (≈ 6.68 µM) | 16 µg/mL (≈ 53.4 µM) | – | – | – | – | – | –
Ampicillin/sulbactam | – | – | – | – | – | – | – | 16/8 | 32/16 | 32/16 | 32/16 | 32/16 | –
C[C@@H](O)[C@H]1C(=O)N2C(C(=O)O)=C(S[C@@H]3CN[C@H](C(=O)N(C)C)C3)[C@H](C)[C@H]12 [Meropenem] | 0.25 µg/mL (≈ 0.652 µM) | 32 µg/mL (≈ 83.4 µM) | 8 µg/mL (≈ 20.9 µM) | 8 µg/mL (≈ 20.9 µM) | 8 µg/mL (≈ 20.9 µM) | 4 µg/mL (≈ 10.4 µM) | – | – | – | – | – | – | –
Pipercillin/tazobactam | – | – | – | – | – | – | – | <128/4 | <128/4 | <128/4 | <128/4 | <128/4 | –
Gentamicin | – | – | – | – | – | – | – | >128 µg/mL | >128 µg/mL | >128 µg/mL | >128 µg/mL | >128 µg/mL | Antibacterial Minimum Inhibitory Concentrations (A. baumannii ATCC 17978): 8 µg/mL
C[C@@H](O)[C@H]1C(=O)N2C(C(=O)O)=C(S[C@@H]3CN[C@H](C(=O)Nc4cccc(C(=O)O)c4)C3)[C@H](C)[C@H]12 [Ertapenem] | 4 µg/mL (≈ 8.41 µM) | – | 32 µg/mL (≈ 67.3 µM) | 32 µg/mL (≈ 67.3 µM) | 32 µg/mL (≈ 67.3 µM) | 16 µg/mL (≈ 33.6 µM) | 128 µg/mL (≈ 269 µM) | – | – | – | – | – | –
Colistin | – | – | – | – | – | – | – | 2 µg/mL | 2 µg/mL | 2 µg/mL | 2 µg/mL | 2 µg/mL | Antibacterial Minimum Inhibitory Concentrations (A. baumannii ATCC 17978): 2 µg/mL
